Test [1] concerns IL-2 secreted by LN cells. The test can be described thus: IL-2 secretion by GA-stimulated LN cells, MSD 9-plex ELISA (Example II). The class given is cell-based, mouse. To be noted: 21 hr. As for the experimental part: Animals at 8 weeks of age were immunized by injection into four footpads using a 1 mL syringe with a 27-G, 1⁄2-inch needle. […] Ten days post-immunization, immunized animals were sacrificed via cervical dislocation. […] The LN cells were isolated by pressing the LN with the plunger end of a sterile syringe. […] Trypan blue exclusion method was used to determine the cell density of viable cells in the suspension. […] Cat. […] LN cells were plated into a 24-well tissue culture plate for drug stimulation. […] Cell debris was removed by centrifugation at ca. 200×g for 10 minutes at 4° C. Cytokines secreted by treated cells were determined on the day of collection by ELISA using mouse TH 1/TH 2 9-Plex Tissue Culture Kit (Meso Scale Discovery; Cat No. […]-2, Lot #: K0032839) which detects Th1 cytokines (IFN-γ, IL-2, IL-12, IL-1β, TNF-α, CXCL1) and Th2 cytokines (IL-4, IL-5 and IL-10). For IFN-γ, culture media also were assayed at 45 hours using mouse IFN-γ Tissue Culture Kit (Meso Scale Discovery; Cat No. […] For the positive control, 0.5 mL of LN cells (5×10^6 cells/well) were treated with 0.5 mL of ConA (5 μg/mL). For the negative control, 0.5 mL of LN cells (5×10^6 cells/well) were treated with 0.5 mL of MBP (20 μg/mL). The LN cells with mock stimulation (enriched DCCM1 medium) were used to monitor the background level of a cytokine. For the cytokine assays, calibration standards or samples were incubated in the MULTI-SPOT or the SINGLE-SPOT plate and each cytokine bound to its corresponding capture antibody. All test samples were run in duplicate. The amount of each cytokine on its distinct spot was quantified using a cytokine-specific detection antibody labeled with MSD SULFO-TAGTM reagent. Electrochemiluminescent signals from immobilized SULFO-TAGTM-labeled complexes on each spot from each well were captured by the MSD SECTOR Imager 6000, which produces a signal directly proportional to the amount of captured cytokine in a test sample. The levels of cytokines in test samples were derived by interpolation from calibration curves with calibration standards of known concentrations using reagents provided with the MSD kits. Kits were used according to the manufacturer's protocols. […] Data are expressed as a response ratio of cytokine concentration in treated cell medium to control DCCM1 medium.
A general note: An ELISA detects its analyte on a solid surface through an enzyme-linked reagent.

The test system of test [2] is mouse IL-5 mRNA in primary LN cells. The test is described as follows: Mouse IL-5 mRNA in LN cells of immunized SJL/J mice stimulated with Copaxone and GMA lots, normalized to Actβ or GAPDH (Example V). Format: cell-based. The method, then:
A real-time polymerase chain reaction method was used to measure the expression of cytokine mRNA in GA-stimulated LN cells from GA-immunized SJL/J mice. Normalization of expression with two different housekeeping genes, GAPDH and β-actin, was tested.
Each group consisted of six female SJL/J mice immunized by injection in all four footpads with a total dose of 250 μg of one lot of GA, or mannitol and no GA. Three Copaxone batches and three GMA batches were used to immunize the mice. CFA was included in both GA and mannitol immunizations. Ten days following immunization, LN cell samples isolated from the immunized mice were each stimulated with a concentration of a Copaxone lot and a GMA lot. A positive control of 2.5 μg/mL ConA treated LN cells and a negative control of 10 μg/mL MBP treated cells were included in each group.
In the initial run, a lack of reproducibility was observed when cytokine mRNA levels were normalized to GAPDH mRNA levels. Therefore, the Q-PCR analysis was repeated on the samples, measuring levels of IL-2, IL-4, IL-5, and IL-13, using both GAPDH and β-actin as reference gene.
The RNA isolation and analysis procedures were similar to those described in Example IV. The expression levels of mouse IL-2, IL-4, IL-5 and IL-13 mRNA observed are summarized below in Tables 29 to 36. As shown by the data in Tables 30, 32, 34 and 36, a lack of reproducibility in the findings again was observed when cytokine mRNA levels were normalized to GAPDH mRNA for all cytokines except IL-13.

The mark [3] stands for this setting: BALB/cByJ, immunized GA Intraplantar.
[4] abbreviates: BALB/cByJ, immunized Mannitol Intraplantar.
The mark [5] stands for this setting: C57BL10J, immunized Mannitol Intraplantar.
Setting [6] is: CD-1, immunized GA Intraplantar.
Where [7] appears, read: CD-1, immunized Mannitol Intraplantar.

In the case of “Concanavalin A [ConA, reference compound]”, the “IL-2 secretion response ratio (treated cell medium to control DCCM1 medium)” value in test [1] (setting [3]) stood at 229.32; in test [1] (setting [4]) it was 281.66; in test [1] (setting [5]) it was 28.71; in test [1] (setting [6]), 85.01; in test [1] (setting [7]), 68.22. Further, the “IL-5 mRNA Fold Change” value in test [2] (Group 3 (mice immunized with GA-M2 Mylan GMA), 2.5 μg/mL, normalized to Actβ) is recorded as 19.1 fold; in test [2] (Group 4 (mice immunized with GA-C2 Copaxone), 2.5 μg/mL, normalized to Actβ), 27.8 fold; in test [2] (Group ID 3, 2.5 μg/mL, normalized to GAPDH), 21.1 fold; in test [2] (Group ID 4, 2.5 μg/mL, normalized to GAPDH) it was 59.4 fold.

B1: MBP: myelin basic protein, a negative control (protein, UniProt P02686 1-304, looked up)
Myelin basic protein: MGNHAGKRELNAEKASTNSETNRGESEKKRNLGELSRTTSEDNEVFGEADANQNNGTSSQDTAVTDSKRTADPKNAWQDAHPADPGSRPHLIRLFSRDAPGREDNTFKDRPSESDELQTIQEDSAATSESLDVMASQKRPSQRHGSKYLATASTMDHARHGFLPRHRDTGILDSIGRFFGGDRGAPKRGSGKDSHHPARTAHYGSLPQKSHGRTQDENPVVHFFKNIVTPRTPPPSQGKGRGLSLSRFSWGAEGQRPGFGYGGRASDYKSAHKGFKGVDAQGTLSKIFKLGGRDSRSGSPMARR
B1: the “IL-2 secretion response ratio (treated cell medium to control DCCM1 medium)” value in test [1] (setting [3]) is on record as 0.97; in test [1] (setting [4]), 0.97; in test [1] (setting [5]) it was 0.98; in test [1] (setting [6]), 0.98; in test [1] (setting [7]) it was 1.28. The “IL-5 mRNA Fold Change” value in test [2] (Group 3 (mice immunized with GA-M2 Mylan GMA), 10 μg/mL, normalized to Actβ) was 0.6 fold; in test [2] (Group 4 (mice immunized with GA-C2 Copaxone), 10 μg/mL, normalized to Actβ) it was 1.1 fold; in test [2] (Group ID 3, 10 μg/mL, normalized to GAPDH) it was 0.6 fold; in test [2] (Group ID 4, 10 μg/mL, normalized to GAPDH), 2.3 fold.

Values taken from patent US10344330B2, “Glatiramer acetate response biomarker mRNA potency assay” (Mylan Inc., priority 2013, dated 2019).
